Laboratory results: ChEMBL document CHEMBL3580639, “Bioactive Limonoid Constituents of Munronia henryi” (J Nat Prod, 2015)
pIC50: −log10 of the molar value. Converted amounts (≈) assume the structure as drawn.

Experiments:
SMMC-7721 = test: Cytotoxicity against human SMMC7721 cells incubated for 48 hrs by MTT assay; assay type: functional, cell-based; details: SMMC-7721, 48 h
A549 = test: Cytotoxicity against human A549 cells incubated for 48 hrs by MTT assay; assay type: functional, cell-based; details: A549, 48 h
HL-60 = test: Cytotoxicity against human HL60 cells incubated for 48 hrs by MTT assay; assay type: functional, cell-based; details: HL-60, 48 h
MCF7 = test: Cytotoxicity against human MCF7 cells incubated for 48 hrs by MTT assay; assay type: functional, cell-based; details: MCF7, 48 h
SW480 = test: Cytotoxicity against human SW480 cells incubated for 48 hrs by MTT assay; assay type: functional, cell-based; details: SW480, 48 h
Tobacco mosaic virus [1] = test: Antiviral activity against TMV U1 infected on 20 mins compound treated fresh leaves from 5 to 6 growth stage Nicotiana glutinosa assessed as inhibition of virus growth at 50 ug/ml cultured at 25 degC for 72 hrs by half-leaf method; assay type: functional; details: U1, in Nicotiana glutinosa
Tobacco mosaic virus [2] = test: Antiviral activity against 30 mins compound pre-treated TMV U1 infected on Nicotiana glutinosa leaves assessed as virus inactivation effect by measuring local lesion numbers after 3 to 4 days post virus inoculation at 50 ug/ml by half-leaf method; assay type: functional; details: U1, in Nicotiana glutinosa
Tobacco mosaic virus [3] = test: Antiviral activity against TMV U1 infected on Nicotiana glutinosa leaves smeared with virus before compound treatment assessed as virus infection curative effect by measuring local lesion numbers after 3 to 4 days post virus inoculation at 200 ug/ml by half-leaf method; assay type: functional; details: U1, in Nicotiana glutinosa
Tobacco mosaic virus [4] = test: Antiviral activity against TMV U1 infected on compound smeared Nicotiana glutinosa leaves assessed as virus infection protective effect by measuring local lesion numbers after 3 to 4 days post virus inoculation at 200 ug/ml by half-leaf method; assay type: functional; details: U1, in Nicotiana glutinosa
Tobacco mosaic virus [5] = test: Antiviral activity against 30 mins compound pre-treated TMV U1 infected on Nicotiana glutinosa leaves assessed as virus inactivation effect by measuring local lesion numbers after 3 to 4 days post virus inoculation by half-leaf method relative to untreated control; assay type: functional, organism-based
Tobacco mosaic virus [6] = test: Antiviral activity against 30 mins compound pre-treated TMV U1 infected on Nicotiana glutinosa leaves assessed as virus inactivation effect by measuring local lesion numbers after 3 to 4 days post virus inoculation at 40 ug/ml by half-leaf method relative to untreated control; assay type: functional; details: U1, in Nicotiana glutinosa
Tobacco mosaic virus [7] = test: Antiviral activity against 30 mins compound pre-treated TMV U1 infected on Nicotiana glutinosa leaves assessed as virus inactivation effect by measuring local lesion numbers after 3 to 4 days post virus inoculation at 50 ug/ml by half-leaf method relative to untreated control; assay type: functional; details: U1, in Nicotiana glutinosa
Tobacco mosaic virus [8] = test: Antiviral activity against 30 mins compound pre-treated TMV U1 infected on Nicotiana glutinosa leaves assessed as virus inactivation effect by measuring local lesion numbers after 3 to 4 days post virus inoculation at 10 ug/ml by half-leaf method relative to untreated control; assay type: functional; details: U1, in Nicotiana glutinosa
Tobacco mosaic virus [9] = test: Antiviral activity against 30 mins compound pre-treated TMV U1 infected on Nicotiana glutinosa leaves assessed as virus inactivation effect by measuring local lesion numbers after 3 to 4 days post virus inoculation at 30 ug/ml by half-leaf method relative to untreated control; assay type: functional; details: U1, in Nicotiana glutinosa
Tobacco mosaic virus [10] = test: Antiviral activity against 30 mins compound pre-treated TMV U1 infected on Nicotiana glutinosa leaves assessed as virus inactivation effect by measuring local lesion numbers after 3 to 4 days post virus inoculation at 20 ug/ml by half-leaf method relative to untreated control; assay type: functional; details: U1, in Nicotiana glutinosa
Tobacco mosaic virus [11] = test: Antiviral activity against 30 mins compound pre-treated TMV U1 infected on Nicotiana glutinosa leaves assessed as virus inactivation effect by measuring local lesion numbers after 3 to 4 days post virus inoculation at 5 ug/ml by half-leaf method relative to untreated control; assay type: functional; details: U1, in Nicotiana glutinosa

Row | Compound | pIC50 (SMMC-7721) | pIC50 (A549) | pIC50 (HL-60) | pIC50 (MCF7) | pIC50 (SW480) | inhibition at 50 µg/mL (Tobacco mosaic virus [1]) | inhibition at 50 µg/mL (Tobacco mosaic virus [2]) | inhibition at 200 µg/mL (Tobacco mosaic virus [3]) | inhibition at 200 µg/mL (Tobacco mosaic virus [4]) | IC50 (Tobacco mosaic virus [5]) | inhibition at 40 µg/mL (Tobacco mosaic virus [6]) | inhibition at 50 µg/mL (Tobacco mosaic virus [7]) | inhibition at 10 µg/mL (Tobacco mosaic virus [8]) | inhibition at 30 µg/mL (Tobacco mosaic virus [9]) | inhibition at 20 µg/mL (Tobacco mosaic virus [10]) | inhibition at 5 µg/mL (Tobacco mosaic virus [11])
1 | CC(=O)O[C@H]1C(=O)[C@@]2(C)[C@H]([C@H](OC(=O)c3ccccc3)[C@]3(O)C[C@H](OC(=O)[C@H](O)[C@@H](NC(=O)c4ccccc4)c4ccccc4)C(C)=C1C3(C)C)[C@]1(OC(C)=O)CO[C@@H]1C[C@@H]2O [PACLITAXEL] | > 8.10 | > 8.10 | > 8.10 | > 8.10 | > 8.10 |  |  |  |  |  |  |  |  |  |  | 
2 | CC(=O)O[C@H]1[C@@H](OC(C)=O)[C@@]2(C)C3=CC[C@@H](c4ccoc4)[C@]3(C)CC[C@@H]2[C@@]2(C)[C@@H](O)C[C@@H](OC(C)=O)C(C)(C)[C@H]12 | < 5.00 | < 5.00 | < 5.00 | < 5.00 | < 5.00 | 33.6% | 30.2% | 23.6% | 25.3% |  |  |  |  |  |  | 
3 | CO[C@H]1C[C@H]2[C@](C)(C3=C(C)[C@H](c4ccoc4)C[C@@H]3O1)[C@H](O)[C@@H]1OC[C@]3(C)[C@H](OC(C)=O)C[C@H](OC(=O)c4ccccc4)[C@@]2(C)[C@@H]13 | < 5.00 | < 5.00 | < 5.00 | < 5.00 | < 5.00 | 41.5% | 30.9% | 19.3% | 15% |  |  |  |  |  |  | 
4 | COC(=O)C[C@@H]1C(C)=C/C(=C\C2=C[C@@H](OC(C)=O)[C@H](OC(C)=O)[C@]3(C)C2=CC[C@H]3c2ccoc2)C(=O)OC1(C)C | < 5.00 | < 5.00 | < 5.00 | < 5.00 | < 5.00 | 30.1% | 27.6% | 27.9% | 28.3% |  |  |  |  |  |  | 
5 | C/C=C(\C)C(=O)O[C@@H]1[C@@H]2OC[C@]3(C)[C@H](OC(C)=O)C[C@H](O)[C@@](C)([C@@H]23)[C@H]2CCO[C@H]3C[C@@H](C4=CCOC4=O)C(C)=C3[C@]12C [CHISONIMBOLININ F] | < 5.00 | < 5.00 | < 5.00 | < 5.00 | < 5.00 | 44.5% | 34.1% | 20.5% | 17.3% |  |  |  |  |  |  | 
6 | CC(=O)O[C@H]1C[C@@H]2[C@@]3(C)[C@@H](OC(C)=O)CC(=O)OC(C)(C)[C@@H]3CC[C@@]2(C)C2=CC[C@@H](c3ccoc3)[C@@]21C | < 5.00 | < 5.00 | < 5.00 | < 5.00 | < 5.00 | 89% | 81.8% | 29.9% | 36.4% | 27.7 µg/mL (≈ 54 µM) | 73.7% | 83.6% | 20.3% | 63.4% | 38.1% | 
7 | C/C=C(\C)C(=O)O[C@H]1C[C@@H](OC(C)=O)[C@@]2(C)CO[C@H]3[C@@H](O)[C@@]4(C)C5=C(C)[C@H](c6ccoc6)C[C@H]5O[C@@H](OC)C[C@@H]4[C@]1(C)[C@@H]32 | < 5.00 | < 5.00 | < 5.00 | < 5.00 | < 5.00 | 98.5% | 88.9% | 44.9% | 63.8% | 28.1 µg/mL (≈ 46.9 µM) | 70.3% | 86.9% | 16.4% | 63.5% | 30.7% | 6.3%
8 | C/C=C(\C)C(=O)O[C@H]1C[C@@H](OC(C)=O)[C@@]2(C)CO[C@H]3[C@@H](O)[C@]4(C)[C@H](CC(OC)O[C@H]5C[C@@H](c6ccoc6)C(C)[C@H]54)[C@]1(C)[C@@H]32 (stereo partly drawn) | < 5.00 | < 5.00 | < 5.00 | < 5.00 | < 5.00 | 43.9% | 31.5% | 53.6% | 50% |  |  |  |  |  |  | 
9 | CC(=O)O[C@@H]1[C@H](O)[C@H]2C(C)(C)[C@H](OC(C)=O)C[C@H](OC(C)=O)[C@]2(C)[C@H]2CC[C@]3(C)C(=CC[C@H]3c3ccoc3)[C@]12C | < 5.00 | < 5.00 | < 5.00 | < 5.00 | < 5.00 | 18.5% | 21.2% | 15.4% | 19.4% |  |  |  |  |  |  | 
10 | CNCC(=O)N[C@@H](CO)C(=O)N[C@H]1[C@H](O)[C@@H](O)[C@H](n2ccc(N)nc2=O)O[C@@H]1C(N)=O [NINGNANMYCIN] |  |  |  |  |  | 69.2% | 58.9% | 40.7% | 50.2% | 44.6 µg/mL (≈ 101 µM) | 38.6% | 57.3% | 17.9% | 33.9% | 20.8% | 
11 | CC(=O)O[C@H]1C[C@H]2[C@](C)(C3=CC[C@@H](c4ccoc4)[C@@]31C)[C@H](OC(C)=O)C[C@H]1C(C)(C)OC(=O)C[C@H](OC(C)=O)[C@@]12C [MUNRONOID L] | < 5.00 | < 5.00 | < 5.00 | < 5.00 | < 5.00 | 80% | 61.4% | 23.7% | 42.1% | 29 µg/mL (≈ 50.8 µM) | 57.6% | 60.8% | 21.5% | 51.4% | 48% | 10.2%
12 | C/C=C(\C)C(=O)O[C@H]1C[C@@H](OC(C)=O)[C@@]2(C)CO[C@H]3[C@@H](O)[C@@]4(C)C5=C(C)[C@H](c6ccoc6)C[C@@H]5OC=C[C@@H]4[C@]1(C)[C@@H]32 | < 5.00 | < 5.00 | < 5.00 | < 5.00 | < 5.00 | 49.3% | 38.5% | 20.1% | 24.7% |  |  |  |  |  |  | 
13 | C/C=C(\C)C(=O)O[C@H]1C[C@@H](OC(C)=O)[C@@]2(C)CO[C@H]3[C@@H](O)[C@@]4(C)C5=C(C)[C@H](c6ccoc6)C[C@@H]5O[C@H](OC)C[C@@H]4[C@]1(C)[C@@H]32 | < 5.00 | < 5.00 | < 5.00 | < 5.00 | < 5.00 | 97.9% | 91.4% | 59.6% | 63.8% | 25.8 µg/mL (≈ 43.1 µM) | 79.8% | 92.8% | 20.5% | 68.2% | 39.7% | 
14 | C=C1[C@@H]([C@@]2(C)C=CC(=O)O[C@](C)(COC(C)=O)[C@@H]2CC(=O)OC)[C@@H](OC=O)[C@H](OC(=O)[C@H](O)[C@H](C)CC)[C@@]2(C)[C@@H](c3ccoc3)C[C@H]3O[C@]132 [MOMBASOL] | < 5.00 | < 5.00 | < 5.00 | < 5.00 | < 5.00 | 47.6% | 38.9% | 28.1% | 31.6% |  |  |  |  |  |  | 
15 | C=C1[C@@H]([C@@]2(C)[C@@H](OC(C)=O)CC(=O)O[C@](C)(COC(C)=O)[C@@H]2C(=O)OC)[C@@H](OC=O)[C@H](OC(=O)[C@H](O)[C@H](C)CC)[C@@]2(C)[C@H](c3ccoc3)CC(=O)[C@]12O [PRIEURIANIN] | 6.14 | 6.00 | 5.32 | 5.66 | 5.92 | 75.9% | 68.1% | 41.6% | 45.7% | 44.4 µg/mL (≈ 59.3 µM) | 39.3% | 70.5% | 3.5% | 35.6% | 11.7% | 
16 | C=C1[C@@H]([C@@]2(C)C=CC(=O)OC(C)(C)[C@@H]2CC(=O)OC)[C@@H](OC(C)=O)[C@H](OC(C)=O)[C@@]2(C)[C@H](C(=O)O)C[C@H]3O[C@]132 | < 5.00 | < 5.00 | < 5.00 | < 5.00 | < 5.00 | 30.7% | 32.5% | 27.3% | 30.5% |  |  |  |  |  |  | 
